Activity calls are given as the source filed them. The calls are words filed in the database; no cut-off is given here.
How the values were obtained:
HL-60 = test: Antitumor activity against human HL60 cells; format: functional, cell-based
Bel-7402 = test: Antitumor activity against human Bel7402 cells; format: functional, cell-based

Question: How did the Activity (HL-60) turn out when `CC(C)c1cc2c(c(O)c1O)[C@@]1(C)CCCC(C)(C)C1=CC2=O` was run?
Answer: Its Activity is “Active”.

Question: What about the Activity (Bel-7402) of the same compound?
Answer: Its Activity is “Active”.

Question: `CC(C)C1=CC2=C[C@H]3Oc4c(c(C(C)C)cc5c4[C@]4(C)CCCC(C)(C)C4=CC5=O)O[C@]34C(C)(C)CCC[C@@]4(C)C2=C(O)C1=O` was tested. Which Activity (HL-60) did it give?
Answer: Its Activity is “inactive”.

Question: And the Activity (Bel-7402)?
Answer: Its Activity is “inactive”.

From ChEMBL document CHEMBL1137807, “A novel dimeric diterpene from Salvia prionitis” (J Nat Prod, 2001)
